According to publication PMC11930985 (Nature Communications, 2025):
“And” between values parts separate entries of the source, which are not always exact repeats. Identical values can stand only once.

Assays:
pAXL = target: T1, pAXL (Homo sapiens, UniProt P30530); assay: CyTOF maximal pAXL inhibition in AML blasts vs bemcentinib concentration; assay type: in vivo
T1 construct: AML blasts were identified within the peripheral blood mononuclear cell population by CyTOF; endogenous in cells
T1 sequence (P30530 26-894): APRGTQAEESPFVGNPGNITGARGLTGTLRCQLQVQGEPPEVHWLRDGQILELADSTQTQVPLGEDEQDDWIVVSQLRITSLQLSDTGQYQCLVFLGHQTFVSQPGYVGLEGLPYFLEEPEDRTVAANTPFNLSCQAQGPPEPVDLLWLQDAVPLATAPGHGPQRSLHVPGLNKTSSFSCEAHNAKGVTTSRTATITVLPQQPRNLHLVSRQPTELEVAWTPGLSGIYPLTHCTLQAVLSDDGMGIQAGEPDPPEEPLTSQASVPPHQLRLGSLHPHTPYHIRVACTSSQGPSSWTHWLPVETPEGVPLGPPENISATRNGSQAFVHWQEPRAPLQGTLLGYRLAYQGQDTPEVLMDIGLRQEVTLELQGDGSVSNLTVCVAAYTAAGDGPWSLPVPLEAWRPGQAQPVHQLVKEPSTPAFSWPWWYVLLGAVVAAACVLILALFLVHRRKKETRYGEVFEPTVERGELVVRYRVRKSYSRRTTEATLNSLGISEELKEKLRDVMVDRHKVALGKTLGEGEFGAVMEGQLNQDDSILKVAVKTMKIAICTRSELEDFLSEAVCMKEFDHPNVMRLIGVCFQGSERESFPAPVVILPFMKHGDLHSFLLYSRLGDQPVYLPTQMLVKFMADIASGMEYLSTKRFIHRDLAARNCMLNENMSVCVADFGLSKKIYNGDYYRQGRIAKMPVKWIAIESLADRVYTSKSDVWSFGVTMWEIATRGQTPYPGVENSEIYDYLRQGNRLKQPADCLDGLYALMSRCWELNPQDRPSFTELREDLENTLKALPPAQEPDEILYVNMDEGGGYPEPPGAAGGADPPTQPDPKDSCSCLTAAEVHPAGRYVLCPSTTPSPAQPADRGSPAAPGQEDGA
From the text: Pharmacodynamic endpoints included the measurement of inhibition of pAXL, pERK, pAKT, pS6 and pSTAT1/3/5 in blast cells (defined as cells with abnormal surface marker expression as compared to healthy donor peripheral blood mononuclear cells and undefined/immature myeloid cells (defined as cells carrying myeloid markers but lacking distinguishing terminal differentiation markers). Mass cytometry time of flight (CyTOF) was used for the determination of the pharmacodynamic markers using a previously validated and tested panel of mass-tagged antibodies[39],[40]. The antibodies in the panel are listed in Supplementary Table 5. Briefly, fixed leukocytes from peripheral blood were barcoded using a 20-plex metal barcoding kit (Standard Biotools, Cell-ID 201060) according to manufacturer’s protocol, allowing all the samples from a single individual to be stained and analysed in parallel. All analysis runs included barcoded peripheral blood mononuclear cells (PBMCs) from at least one healthy donor and an identical barcoded reference sample (mix of PBMCs from six healthy donors). Barcoded cells (approx. 6 × 10^6) were treated with FC receptor block (Octagam, 1:1000 (Octapharma) in MaxPar cell staining buffer (CSB, Standard Biotools 201068), 15 min, room temperature) and treated with heparin (100 IU/mL in CSB, 20 min) to reduce non-specific staining artefacts. The sample was then stained with an optimised mixture of mass-tagged surface antibodies in a total staining volume of 600 μL (30 min, room temperature). Subsequently, the sample was permeabilized with cold (-20 °C) 100 % methanol (15 min, on ice), re-treated with heparin, and stained with a panel of intracellular mass-tagged antibodies (as described above). DNA was labelled with iridium-191/193 by incubation in 0.1 nM Ir-nucleic acid intercalator (Standard Biotools 201192) diluted in MaxPar PBS (Standard biotools 201058) containing 4% PFA overnight at 4 °C. […]
For each population, marker, and sample, the 95th percentile of the non-transformed expression values was calculated. […]

Flt1 = system: Flt1; set-up: method as in Investigator's Brochure (IB) version 5.0; conditions: ref Investigator's Brochure (IB) version 5.0; cited from earlier work
[1] = system: bone marrow cells from patients with primary AML; set-up: method as in Ben-Batalla et al., 2013; conditions: ref Ben-Batalla et al., 2013; cited from earlier work
OCI-AML5 xenograft = system: OCI-AML5 xenograft; set-up: method as in Investigator's Brochure (IB) version 5.0; conditions: ref Investigator's Brochure (IB) version 5.0; cited from earlier work
bacterial mutation = conditions: ref Investigator's Brochure (IB) version 5.0; cited from earlier work

## Nc1nc(Nc2ccc3c(c2)CC[C@@H](N2CCCC2)CC3)nn1-c1cc2c(nn1)-c1ccccc1CCC2 [Bemcentinib]
pAXL; Figure 4, individual patients (Pt 1-13)
  Maximum inhibition (percent) pAXL(Y779): 14.7% and 1.3% and 25.7% and 0.4% and 26.3% and 2.9% and 13.4% and 0% and 16.1% and 15.5% and 11.4% and 7%
pAXL; peripheral blood, DE cohort
  Plasma concentrations at which inhibition of pAXL was seen: 45–347 ng/mL
  Time to intracellular phospho-signaling changes vs pre-treatment: ≤ 4 h
Flt1
  IC50: > 1000 nM
[1]
  Patients whose bone marrow cells were sensitive to BGB324: 7 out of 11
  Sensitization of primary patient AML cells to Ara-C: sensitizes
OCI-AML5 xenograft
  Tumor growth: inhibited
Bacterial mutation
  Ames bacterial mutation assay result: negative
